Assays:
Format in all cases: biochemical
[1] = system: L-asparaginase THERMUS T-351 (ATCC No. 31,674); assay: Asparaginase properties: inhibitors; settings: inhibitor concentration not stated
[2] = target: T1, L-asparaginase E. COLI (B) (for comparison) (Escherichia coli, UniProt P00805); assay: Asparaginase properties: Km and inhibitors (for comparison); settings: inhibitor concentration not stated
T1 sequence (P00805 23-348): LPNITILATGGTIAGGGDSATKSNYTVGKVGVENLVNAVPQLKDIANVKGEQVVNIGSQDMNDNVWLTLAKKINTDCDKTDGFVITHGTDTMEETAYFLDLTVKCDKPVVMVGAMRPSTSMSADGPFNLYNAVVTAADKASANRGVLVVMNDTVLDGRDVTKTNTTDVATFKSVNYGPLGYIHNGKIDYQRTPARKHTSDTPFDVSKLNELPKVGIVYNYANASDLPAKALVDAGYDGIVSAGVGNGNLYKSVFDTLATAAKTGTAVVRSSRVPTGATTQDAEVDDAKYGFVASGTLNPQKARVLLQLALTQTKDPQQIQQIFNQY

[3] = system: D-asparaginase THERMUS T-351 (ATCC No. 31,674); assay: Asparaginase properties: Km and inhibitors; settings: for Inhibitors: loss of activity: inhibitor concentration not stated

Km ([3]; substrate not given, enzyme specific only for D-asparagine) [mM] | SMILES | Inhibitors: loss of activity [1] | Inhibitors: loss of activity [2] | Inhibitors: loss of activity [3]
– | CC(N)=O [Acetamide] | No loss of activity | No loss of activity | 100%
20 | NC(=O)C[C@@H](N)C(=O)O [D-asparagine] | – | – | –
– | O=C(O)c1cc[c]([Hg][Cl])cc1 [pCMB] | 100% | No loss of activity | No loss of activity

From patent US4473646A, “Stereospecific asparaginases” (Development Finance Corp. of New Zealand, priority 1980, dated 1984)
